Reference: patent US11078188B2, “Dihydroquinoxaline bromodomain recognition protein inhibitor, preparation method and use thereof” (SHANGHAI INSTITUTE OF MATERIA MEDICA, CHINESE ACADEMY OF …, priority 2017, dated 2021)

Tests used:
BRD4 (I) = BRD4 (I) (Homo sapiens (Human), UniProt O60885); test: Fluorescence anisotropy (FA) binding test on BRD4 (I); conditions: BRD4 (I) 10 nM, fluorescent (+)-JQ1 substrate 5 nM, read-out: BRD4 (1) IC50
[1] = test system: human myeloma cells MM.1S; test: MM.1S cell viability, CCK-8 method; format: cell-based; conditions: for IC50: 72 h treatment, CCK-8; for inhibitory activity against the MM.1S cell line (in words): compared with positive (+)-JQ1
Method: The MM.1S cell line was tested for cell viability. The test methods were as follows: human myeloma cells MM.1S were treated with compound for 72 h, and the proliferation inhibition effect and degree of the compound were detected by CCK-8 method.

[2] = Metabolic stability in human liver microsomes; format: in vitro ADME; conditions: human liver microsomes 0.5 mg/ml, 1 μM compound, NADPH
Method: The system which was 150 μl of human liver microsomes (final concentration: 0.5 mg/ml) was used for metabolic stability incubation. The system contained reduced coenzyme II (NADPH) (final concentration: 1 mM) and 1 μM compound, positive control or negative control. The reaction was terminated with acetonitrile containing (imiprozine, batch number: 3221; tinidazole, given) at 0 min, 5 min, 10 min, and 30 min, respectively. The mixture was vortexed for 10 min, centrifuged at 15000 rpm for 10 min, and 50 μl of the supernatant was injected into a 96-well plate. The metabolic stability of the compound was calculated by measuring the relative reduction in the original medicament.
(§1) HLM Clint (μl/min/mg) refers to the clearance rate of compounds in human liver microsomes having a unit of μl/min/mg; mLM Clint (μl/min/mg) refers to the clearance rate of compounds in mouse liver microsomes having a unit of μl/min/mg; HLM t1/2 (min) refers to the half-life of the compound in human liver microsomes having a unit of minutes; mLM t1/2 (min) refers to the half-life of the compound in mouse liver microsomes having a unit of minutes. TDI means that the mechanism inhibition test of compounds on CYP enzyme evaluates whether the compound has time-dependent inhibition of the enzyme.

[3] = Metabolic stability in mouse liver microsomes; format: in vitro ADME
CYP enzyme = test: Mechanistic inhibition test (TDI test); format: in vitro ADME; conditions: human liver microsomes 0.2 mg/ml; mechanism inhibition if kobs greater than 200
Method: The system which was 200 μl of human liver microsomes (final concentration: 0.2 mg/ml) was used for mechanistic inhibition incubation. The system contained 10 μl compound, mixed positive inhibitor (Troleandomycin 10 μl, Paroxetine 10 μl, Tienilic acid 10 μM, Furafylline 10 μl) or 10 μl negative control PRO. After NADPH (final concentration: 1 mM) or PBS was added, the system was incubated for 0 min, 5 min, 10 min and 30 min, then NADPH (final concentration: 1 mM) and mixed probe substrate (Midazolam 5 μM, Testosterone 50 μl, Dextromethophan 5 μM, Diclofenac 10 μl, Phenacetin 5 0 μM, S-(+)-mephenytoin 50 μl) were added and incubated for 10 min. Then the reaction was stopped. The test for positive inhibitor CYP2C19 was carried out alone, the inhibitor S-(+)-fluoxetine was 100 μM. The enzyme activity was calculated by measuring the relative production amount of metabolite. kobs was calculated.
as §1

SMILES | IC50 (BRD4 (I)) | IC50 [1] | inhibitory activity against the MM.1S cell line (in words) [1] | HLM Clint [2] | HLM t1/2 [2] | MLM t1/2 [3] | mLM Clint [3] | TDI (CYP enzyme) | IC50 ([1]; Homo sapiens, MM1.S) | microsomal CLint at 1 μM ([2]; read-out: HLM Clint) | half-life at 1 μM ([2]; read-out: HLM t1/2) | half-life at 1 μM ([3]; read-out: half-lives in mouse liver microsomes) | microsomal CLint at 1 μM ([3]; read-out: mLM Clint)
Cc1ccc(-n2nc(C(=O)N3CCN(C)CC3)nc2-c2ccc3c(c2)N(C2CCCC2)[C@H](C)C(=O)N3C)cc1 [Example 6] | 6.5 nM | 13.6 ± 5.45 nM | better inhibitory activity against the MM.1S cell line than the positive (+)-JQ1 | 61 µL/min/mg | 23 min | 41 min | 34 µL/min/mg | no | – | – | – | – | –
Cc1ccc(-n2nc(C(=O)N3C[C@@H](C)N[C@@H](C)C3)nc2-c2ccc3c(c2)N(C2CCCC2)[C@H](C)C(=O)N3C)cc1 [Example 12] | 4.9 nM | – | better inhibitory activity against the MM.1S cell line than the positive (+)-JQ1 | – | – | – | – | no | 5.42 ± 1.14 nM | 52 µL/min/mg | 27 min | 193 min | 7 µL/min/mg
